Measurements reported in article PMC8592623, “Enhanced oral bioavailability of koumine by complexation with hydroxypropyl-β-cyclodextrin: preparation, optimization, ex vivo and in vivo characterization” (Drug Delivery, 2021).
Converted amounts (≈) assume the structure as drawn.

Columns and labels:
[1] = Cell viability study (CCK-8 assay); format: cell-based; conditions: human, Caco-2, 5–100 μg/mL, read-out: viability of Caco-2 cells
Procedure: The cytotoxicity of KME and KME/HP-β-CD was evaluated in Caco-2 cells using the cell counting kit-8 (CCK-8) assay. Caco-2 cells were cultured in DMEM containing 20% FBS and incubated at 37 °C with 5% CO2. Caco-2 cells (1 × 10^4 cell/well) were seeded in 96-well plates and incubated for 24 h. Then, 100 μL of fresh medium containing KME or KME/HP-β-CD (5–100 µg/mL) was added. After 24 h, the culture medium was changed with CCK-8 solution and the samples were incubated for another 2 h. The optical density (OD) was read at 490 nm (BioTek Instruments, Winooski).

[2] = In vitro drug release, dialysis bag diffusion method; format: physicochemical; conditions: pH 6.8 phosphate buffer, 37 °C
Procedure: A dialysis bag diffusion method was used to evaluate in vitro drug release profiles of both KME and KME/HP-β-CD (Zhao et al. [2021]). 2 mg of KME was dispersed in water, and then transferred to a dialysis bag and placed in a beaker containing 40 mL of pH 6.8 phosphate buffer. The study was carried out at 37 ± 0.5 °C and a magnetic stirring speed of 100 rpm. Aliquots of approximately 4 mL were taken out at predetermined time intervals (10 min, 15 min, 30 min, 1 h, 2 h, 3 h, and 6 h) and replaced by the same volume of fresh buffer to maintain a constant volume of dissolution media during sampling. The samples were filtered and analyzed by HPLC.

[3] = Caco-2 permeability study; format: in vitro ADME; conditions: human, 50 μg/mL KME equivalent
Procedure: Caco-2 cells were seeded at a density of 5 × 10^5 cells/well on top of 12-well Transwell® polycarbonate filters, and cultured in a 5% CO2 incubator at 37 °C for 21 days. The medium was changed every 2 days in the first week, and then every day for the next two weeks. At the end of 21 days, a Millicell-ERS epithelial voltmeter (Merck, USA) was used to analyze the transepithelial electrical resistance (TEER) value of Caco-2 cells. Only monolayers with TEER values higher than 600 Ω·cm^2 can be used in subsequent transport experiments (Chen et al. [2018]).
To investigate the permeability of KME and KME/HP-β-CD inclusion complexes in Caco-2 cells, the apical to basal (A-B) and basal to apical (B-A) transport of KME was measured. After preincubation for 30 min with blank HBSS, 0.5 mL of HBSS medium containing KME or KME/HP-β-CD (equivalent KME concentration of 50 μg/mL) was added to the apical side in the A-B direction experiments, and 1.5 mL of fresh HBSS was added to the basolateral side of the inserts as the acceptor phase. In contrast, for the B-A direction experiments, 1.5 mL of HBSS medium containing KME or KME/HP-β-CD (equivalent KME concentration of 50 μg/mL) was added to the basolateral side, and 0.5 mL of fresh HBSS was added to the apical side of the inserts as the acceptor phase. The plates were incubated in a shaker at 37 °C. 100 μL of the sample were taken from the acceptor side at predetermined time intervals (30, 60, 90, and 120 min) and replaced by the same volume of fresh HBSS to maintain a constant volume. Finally, the obtained samples were analyzed by HPLC. The Papp values (cm/s) were determined using the following equation (McCartney et al. [2019]; Patel & Sawant [2019]): Papp=(dQ/dt)/(A×C0),where dQ/dt is the steady−state flux, A is the surface area of the monolayer (1.12 cm^2), and C0 is the donor concentration (50 μg/mL). TEER (Ω·cm^2)=(TEER (Ω) –TEER blank (Ω)) × A(cm^2)
Here, TEER (Ω), Caco-2 monolayers; TEER blank (Ω), the insert without cells; A (cm^2), 1.12 cm^2.

[4] = Saturation solubility in distilled water; format: physicochemical; conditions: 37 °C, saturated solution
Procedure: Excess KME and KME/HP-β-CD were added to distilled water to obtain a supersaturated solution (Arya & Raghav [2021]). The samples were shaken at 37 °C for 24 h and 100 rpm. After centrifugation, the supernatants were filtered through a 0.45 μm membrane and the solubility was determined (n = 3) with the validated HPLC method.

[5] = parameters: method as in Wang et al. [2019]; conditions: from parameters of published reports; ref Wang et al. [2019]; cited from earlier work
[6] = introduction, no reference given; cited from earlier work
[7] = previously investigated in our laboratory; cited from earlier work
[8] = tested on: rat intestines (everted gut sac: duodenum, jejunum, ileum, colon); test: Ex vivo everted gut sac experiments; format: in vitro ADME
Procedure: The protocol of the animal study was approved by the Institutional Animal Care and Use Committee of Fujian Medical University (permit number: SYXK (Min) 2018-0001), China. Male SD rats weighing 220–250 g were fasted overnight before the experiment and with free access to water. The everted gut sac method was carried out as in previously published reports with minor modifications (Tambe et al. [2019]). Rats were anesthetized and sacrificed, and the intestinal segments of interest were identified and dissected (duodenum, starting 1 cm from the stomach; jejunum, 10–18 cm from the stomach; ileum, starting 8 cm above the cecum; colon, 5 cm below the cecum) (Rong et al. [2013]).
Each obtained intestinal segment was immediately washed with ice-cold Krebs-Ringer (K-R) solution, and then turned out with a glass rod, and one end was ligated with a thread. After inserting the glass tube, the other open end of the everted sacs was also tightened. Then blank K-R solution (2.5 mL) was added to the everted gut sacs. The everted segments were preincubated in 50 mL of K-R solution at 37 °C for 5 min. […] After the experiment, the length of each intestinal segment was accurately measured, and the concentration of KME was measured by HPLC. The apparent permeability coefficient (Papp) values of KME were calculated by the following equation (Tambe et al. [2019]): […]

[9] = In vivo pharmacokinetics study after oral administration; conditions: oral gavage 12 mg/kg, male SD rats, n = 6; for AUC0–12 (AUC0-t): 12 mg/kg
Procedure: The in vivo pharmacokinetic study was approved by the Institutional Animal Ethical Committee, Fujian Medical University, China. Male SD rats (200 ± 20 g) have fasted for 12 h with free access to water before oral administration. The rats were divided randomly into two groups (n = 6) and received KME or KME/HP-β-CD by oral gavage at a drug dose of 12 mg/kg. The KME powder and KME/HP-β-CD were dispersed in deionized water containing 0.1% sodium carboxymethylcellulose (CMC-Na). Blood samples were collected at predetermined intervals (0.05, 0.1, 0.16, 0.5, 1, 3, 6, 9, and 12 h) from the retroorbital venous sinus, and placed in heparinized anticoagulant tubes. After centrifugation at 4,000 rpm for 10 min at 4 °C, the plasma was separated and stored at −80 °C until UPLC-MS/MS analysis.
Plasma samples were prepared by the protein precipitation method (Chen et al. [2013]). Briefly, an aliquot of 50 μL plasma sample and 200 μL of acetonitrile containing 10 ng/mL gelsemine (internal standard, IS) were added to a centrifuge tube. The mixture was vortexed for 5 min and centrifuged at 18,000 rpm for 10 min at 4 °C. Then the supernatant was transferred and injected into the UPLC-MS/MS system for analysis. Chromatographic separation was performed using a UPLC instrument (Agilent 1290, Agilent Technologies, USA), equipped with a mass spectrometer (QTRAP® 5500, AB SCIEX, USA). The mass spectrometer detector was performed with multiple reactions monitoring scan mode at m/z 307.2 → 180.1 for KME and m/z 323.1 → 236.1 for IS. More detailed information about UPLC-MS/MS is provided in the supplementary material. The main pharmacokinetic parameters such as T1/2, Cmax, Tmax, and area under the curve (AUC), were determined using the non-compartmental model with DAS 3.2.1 software. The relative bioavailability F was calculated by the following equation: F(%) =(AUC0–t (inclusion complexes)/AUC0–t(KME)) × 100%

[10] = previously investigated in our laboratory; cited from earlier work; remark: listed apart in the source
[11] = Phase solubility study (Higuchi and Connors); format: physicochemical
Procedure: The phase solubility studies were carried out according to the method of Higuchi and Connors (Jansook et al. [2018]; Higuchi & Connors [1965]). Briefly, an excess of KME was added to 200 μL aqueous solutions of different HP-β-CD concentrations (1, 2, 4, 6, 8, and 10 mM). All samples were shaken at 25 °C and 100 rpm for 72 h until reaching equilibrium. Subsequently, the samples were withdrawn and filtered through a 0.45 µm membrane to remove undissolved KME. The concentration of KME in the HP-β-CD solutions was determined by an HPLC method, and the analyses were performed in triplicate (n = 3). The apparent stability constants (Ks) were calculated by the following equation (Nair et al. [2014]; Pinto et al. [2020]): Ks = slope/So (1-slope), where So represents the intrinsic solubility of the drug, and the slope is the slope of the linear KME-CD phase solubility diagram.

Which results are given for `C=C[C@@]12CN(C)[C@H]3C[C@]14C(=Nc1ccccc14)[C@H]1C[C@@H]2[C@@H]3CO1` [KME, Koumine]?
viability at 24 h [1]: > 90%; release rate in the first 1 h ([2]; 1 h): 40%; release rate within 6 h ([2]; 6 h): 70%; efflux ratio at 120 min, 50 µg/mL ([3]; read-out: efflux ratio (B-A permeability/A-B permeability)): 1.74; Papp A→B at 120 min, 50 µg/mL ([3]; apical to basal, 120 min): 7.78 ± 2.01 ×10⁻⁶ cm/s; Papp B→A at 120 min, 50 µg/mL ([3]; basal to apical, 120 min): 13.5 ± 1.72 ×10⁻⁶ cm/s; solubility at 24 h [4]: 700 µg/mL (≈ 2280 µM); absolute bioavailability (Fabs) [5]: 1%; solubility in water [6]: < 1000 µg/mL; absolute bioavailability (Fabs) in beagle dogs [7]: 5.67%; order of absorption flux in the intestinal segments ([8]; 100 μg/mL, up to 120 min): ileum > duodenum > jejunum > colon; KME absorption in colon segment with verapamil versus without ([8]; colon, verapamil 100 μg/mL (inhibitor of P-gp)): no significant difference; AUC0–12 (AUC0-t) ([9]; listed as KME suspension): 72.50 ± 15.25 ng·h/mL; AUC0–12 (AUC0-t) ([9]; listed as Raw KME): 26.48 ± 17.80 ng·h/mL; AUC(0-inf) ([9]; rat, plasma): 30.2 ± 16.6 ng·h/mL; Cmax ([9]; rat, plasma): 22.8 ± 15.6 ng/mL; Tmax ([9]; rat, plasma): 19.8 ± 12 min; half-life ([9]; rat, plasma): 51.6 ± 7.2 min; absolute bioavailability (Fabs) in rats [10]: 14.30%; solubility at 72 h ([11]; 10 mM HP-β-CD aqueous solution, 25 °C, 72 h, read-out: solubility of KME at 10 mM HP-β-CD): 1810 µg/mL (≈ 5910 µM); increase of KME solubility at 10 mM HP-β-CD ([11]; 10 mM HP-β-CD versus water): 2.59 fold; solubility thermodynamic at 72 h ([11]; water, 25 °C, 72 h, no HP-β-CD, read-out: equilibrium solubility of KME in water): 700 ± 20 µg/mL (≈ 2280 µM)
